Tested on: UUO-induced renal fibrosis
Assay: UUO-induced renal fibrosis, Masson Trichrome staining of kidney sections with image analysis
Assay type: in vivo, Sprague Dawley rats
Settings: rat UUO kidney, day 14; hSAP 2 mg/kg iv q2d days 0-12; enalapril 200 mg/L in drinking water; HSA control approximately 22%, uninjured kidney approximately 5%
Procedure: Unilateral Ureter Obstruction (UUO) in the rat is a suitable model of renal fibrosis'. Renal fibrosis was induced in Sprague Dawley rats weighing 200-250 grams. Rats were anesthetized with ketamine (100 mg/kg) and xylazine (5 mg/kg). All surgical procedures were conducted using aseptic techniques.
The left kidney, renal artery and vein were exposed and the ureter occluded using suture. The surgical site was then sutured closed.
Human serum albumin in PBS (group 1) or hSAP in PBS (groups 2-5) was given to animals by intravenous (iv) injection every other day from day 0 to day 12 as detailed in Table 4. Enalapril was be added to the drinking water of animals in groups 2, 5 and 6, beginning on the day of study and continuing until sacrifice (day 14).
On day 14, animals were sacrificed and both the left occluded and right contralateral control kidneys excised.
To determine the extent of fibrosis induced by 14 days of UUO, kidney sections from all groups of animals were stained with Masson Trichrome and the extent of Trichrome positivity determined using image analysis (see FIG. 1). […] However, there was a significant inhibition in Trichrome staining in the animals treated with the combination of enalapril and hSAP (p<0.05; approximately 10%). […]

Molecule | extent of Trichrome staining (collagen deposition in the kidney)
CCOC(=O)[C@H](CCc1ccccc1)N[C@@H](C)C(=O)N1CCC[C@H]1C(=O)O [enalapril] | approximately 15%
hSAP: human serum amyloid P, a pentraxin family protein that suppresses fibrocyte differentiation | approximately 25%
